Assay results published in publication PMC7291828 (Journal of medicinal chemistry, 2019).
Where a SMILES comes first, the peptide text is derived from it. Bridges are numbered along the chain shown (N, C = ends). Roman numbers before positions name the chains, in order. [ ]: non-standard residue; d: D form. 2Nal = N[C@@H](Cc1ccc2ccccc2c1)C(=O)O; Dap = NC[C@H](N)C(=O)O; AEEA = NCCOCCOCC(=O)O

Assays:
SJSA-1 cells = assay: MTT viability assay, SJSA-1 cells; format: cell-based, human
[1] = cited from earlier work
HeLa cells = assay: Live-cell confocal microscopy of FAM-labeled peptides; format: cell-based; settings: 5 μM FAM-labeled peptide, 2 h, 1% FBS
SW480 cells = settings: up to 50 μM
[2] = tested on: MCF7, HCT116 and HeLa cells; settings: ≥20 μM, apparently off-target (membrane disruption)

Molecule: Ac-LTFDHYWKQLTS-miniPEG-K(Tat) (sidechain bridge or staple) [Peptide 6]
- effect on viability of SJSA-1 cells (SJSA-1 cells): did not cause significant reduction

Molecule: nonaarginine [Peptide R9]
- fold lower cytosolic delivery efficiency than cyclic CPP9 [1]: 15 fold

Molecule: Ac-ETFCHYWCQLTS-miniPEG-K(FAM) (bicyclic or more) [Peptide 23]
- intracellular fluorescence (HeLa cells): brightly fluorescent

Molecule: Ac-EETFCHYWCQLTS-miniPEG-K(FAM) (bicyclic or more) [Peptide 25]
- intracellular fluorescence (HeLa cells): brightly fluorescent

Molecule: Ac-LTFCHYWCQLTS-miniPEG-K(FAM) (bicyclic or more) [Peptide 21]
- intracellular fluorescence (HeLa cells): brightly fluorescent

Molecule: CC[C@H](C)[C@@H]1NC(=O)[C@@H](NC(=O)[C@H](CCC(=O)O)NC(=O)[C@@H]2CCCN2C(=O)[C@H](Cc2ccc(O)cc2)NC(=O)CNC(=O)CNC(C)=O)CC(=O)NCCCC[C@@H](C(=O)N[C@@H](Cc2cnc[nH]2)C(=O)N[C@@H](CC(C)C)C(=O)N[C@@H](CCC(N)=O)C(=O)N[C@@H](CCCNC(=N)N)C(=O)N[C@H](C(=O)N[C@H](C(=O)N[C@@H](CC(C)C)C(=O)NCCOCCOCC(=O)NCCOCCOCC(=O)N[C@@H](CNC(=O)CC[C@@H]2NC(=O)[C@@H](CCCNC(=N)N)NC(=O)[C@H](CCCNC(=N)N)NC(=O)[C@@H](CCCNC(=N)N)NC(=O)[C@H](CCCNC(=N)N)NC(=O)[C@H](Cc3ccc4ccccc4c3)NC(=O)[C@@H](Cc3ccccc3)NC2=O)C(N)=O)[C@@H](C)CC)C(C)C)NC(=O)[C@H](CC(=O)O)NC(=O)[C@H](CC(C)C)NC1=O [Peptide 9] (I: Ac-GGYPEDILDKHLQRVIL[AEEA][AEEA][Dap]-NH2 / II: cyclo([2Nal]R[dR]R[dR]E[dF]); lactam I:6-I:10; amide I:20-II:6)
- LDH release from SW480 cells (SW480 cells): did not cause significant LDH release

Molecule: CC(=O)N[C@@H](CC(C)C)C(=O)N[C@H](C(=O)N[C@@H](Cc1ccccc1)C(=O)N[C@H]1CC(=O)NCCCC[C@@H](C(=O)N[C@@H](CCC(N)=O)C(=O)N[C@@H](CC(C)C)C(=O)N[C@H](C(=O)N[C@@H](CO)C(=O)NCCOCCOCC(=O)N[C@@H](CCCCNC(=O)CC[C@@H]2NC(=O)[C@@H](CCCNC(=N)N)NC(=O)[C@H](CCCNC(=N)N)NC(=O)[C@@H](CCCNC(=N)N)NC(=O)[C@H](CCCNC(=N)N)NC(=O)[C@H](Cc3ccc4ccccc4c3)NC(=O)[C@@H](Cc3ccccc3)NC2=O)C(N)=O)[C@@H](C)O)NC(=O)[C@H](Cc2c[nH]c3ccccc23)NC(=O)[C@H](Cc2ccc(O)cc2)NC(=O)[C@H](Cc2cnc[nH]2)NC1=O)[C@@H](C)O [Peptide 4] (I: Ac-LTFDHYWKQLTS[AEEA]K-NH2 / II: cyclo([2Nal]R[dR]R[dR]E[dF]); lactam I:4-I:8; amide I:14-II:6)
- effect on cell viability at higher concentrations [2]: almost complete loss of cell viability

Molecule: Ac-LTFDHYWKQLTS-miniPEG-K(R9) (sidechain bridge or staple) [Peptide 7]
- effect on viability of SJSA-1 cells (SJSA-1 cells): did not cause significant reduction
